In patent US12240862B2, “Inhibitors of peptidylarginine deiminases” (Gilead Sciences, Inc., priority 2020, dated 2025):

Target: T1, human PAD4 (Homo sapiens, UniProt Q9UM07)
T1 construct: human PAD4 (NM_012387), A2P663, was PCR amplified; His-SUMO (N, cleaved yes); made in house; host or cells: E. coli BL21(DE3)
Test: In vitro PAD4 BAEE biochemical assay
Conditions: human PAD4, BAEE substrate; 5 nM PAD4, 2 mM calcium chloride, 3 mM BAEE; geometric mean of multiple experiments
In short: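 Tag-free recombinant hPAD4 (5 nM), 2 mM CaCl2, 3 mM BAEE, 50 mM MOPS pH 7.6, 2 mM DTT; 30 min compound preincubation, 2 h reaction, all 25 °C. EDTA quench; ammonia read via o-phthalaldehyde amine coupling, 1 h.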

T1 sequence (Q9UM07 2-663): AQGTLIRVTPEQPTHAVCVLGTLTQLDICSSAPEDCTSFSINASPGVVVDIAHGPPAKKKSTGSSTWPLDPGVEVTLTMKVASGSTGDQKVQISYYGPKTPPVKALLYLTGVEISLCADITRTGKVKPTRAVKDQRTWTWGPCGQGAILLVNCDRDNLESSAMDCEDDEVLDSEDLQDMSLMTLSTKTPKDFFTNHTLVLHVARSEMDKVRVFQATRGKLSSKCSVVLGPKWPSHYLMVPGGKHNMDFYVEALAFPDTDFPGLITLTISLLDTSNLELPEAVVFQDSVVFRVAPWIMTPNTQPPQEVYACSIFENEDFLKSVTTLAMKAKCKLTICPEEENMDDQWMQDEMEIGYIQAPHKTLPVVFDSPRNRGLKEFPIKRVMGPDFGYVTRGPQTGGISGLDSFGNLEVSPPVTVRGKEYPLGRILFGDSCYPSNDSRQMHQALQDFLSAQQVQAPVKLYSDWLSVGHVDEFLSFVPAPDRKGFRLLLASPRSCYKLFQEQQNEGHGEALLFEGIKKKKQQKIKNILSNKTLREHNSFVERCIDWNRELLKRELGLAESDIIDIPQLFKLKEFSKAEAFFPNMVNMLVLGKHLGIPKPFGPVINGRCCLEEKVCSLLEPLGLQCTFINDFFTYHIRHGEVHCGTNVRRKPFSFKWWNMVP

Row | Structure (SMILES) | IC50
1 | COc1cc(C(=O)N[C@@H]2CC[C@@H](C)NC2)cc2nc(-c3cc4ccc(N(C(F)F)S(C)(=O)=O)nc4n3CC3CC3)c(C)n12 [Example 314, 2-[1-(cyclopropylmethyl)-6-[difluoromethyl (methylsulfonyl)amino]pyrrolo[2,3-b]pyridin-2-yl]-5-methoxy-3-methyl-~{N}-[(3~{R},6~{R})-6-methylpiperidin-3-yl]imidazo[1,2-a] pyridine-7-carboxamide] | 38.7 µM
2 | COc1cc(C(=O)N[C@@H]2CNCC[C@H]2C)cc2nc(-c3cc4ccc(N(C(F)F)S(C)(=O)=O)nc4n3CC3CC3)c(C)n12 [Example 281, 2-[1-(cyclopropylmethyl)-6-[difluoromethyl (methylsulfonyl)amino]pyrrolo[2,3-b]pyridin-2-yl]-5-methoxy-3-methyl-~{N}-[(3~{S},4~{R})-4-methylpiperidin-3-yl] imidazo[1,2-a]pyridine-7-carboxamide] | 16.2 µM
3 | COc1cc(C(=O)N2[C@H]3CC[C@H](N)[C@@H]2CC3)cc2nc(-c3cc4ccc(N(C(F)F)S(C)(=O)=O)nc4n3CC3CC3)c(C)n12 [Example 408, ~{N}-[2-[7-[(1~{S},2~{S}, 5~{S})-2-amino-8-azabicyclo[3.2.1]octane-8-carbonyl]-5-methoxy-3-methylimidazo[1,2-a]pyridin-2-yl]-1-(cyclopropylmethyl)pyrrolo [2,3-b]pyridin-6-yl]-~{N}-(difluoromethyl) methanesulfonamide] | 3.02 µM
4 | CCc1ccc2cc(-c3nc4cc(C(=O)N5[C@H]6CC[C@@H]5[C@H](N)C6)cc(OC)n4c3C)n(CCS(C)(=O)=O)c2n1 [Example 498, [(1~{R},2~{R},4~{S})-2-amino-7-azabicyclo [2.2.1]heptan-7-yl]-[2-[6-ethyl-1-(2-methylsulfonylethyl)pyrrolo[2,3-b]pyridin-2-yl]-5-methoxy-3-methylimidazo[1,2-a]pyridin-7-yl]methanone] | 0.673 µM
5 | COc1cc(C(=O)N2CC[C@H]3CCN[C@H]3C2)cc2nc(-c3cc4ccc(N(C(F)F)S(C)(=O)=O)nc4n3CC3CC3)c(C)n12 [Example 420, ~{N}-[2-[7-[(3~{a}~{R},7~{a}~{R})-1,2,3,3~{a},4,5,7,7~{a}-octahydropyrrolo[2,3-c]pyridine-6-carbonyl]-5-methoxy-3-methylimidazo [1,2-a]pyridin-2-yl]-1-(cyclopropylmethyl)pyrrolo [2,3-b]pyridin-6-yl]-~{N}-(difluoromethyl) methanesulfonamide] | 0.0606 µM
6 | COc1cc(C(=O)N2C[C@H]3CC[C@@H]2[C@@H]3N)cc2nc(-c3cc4ccc([C@@H](C)NC(=O)[C@H]5CC5(F)F)nc4n3CC3CC3)c(C)n12 [Example 100, (R)-N-((R)-1-(2-(7-((1R,4R,7R)-7-amino-2-azabicyclo[2.2.1]heptane-2-carbonyl)-5-methoxy-3-methylimidazo[1,2-a]pyridin-2-yl)-1-(cyclopropylmethyl)-1H-pyrrolo[2,3-b]pyridin-6-yl)ethyl)-2,2-difluorocyclopropane-1-carboxamide] | 0.0767 µM
7 | COc1cc(C(=O)N2CCC3CC3(N)C2)cc2nc(-c3cc4ccc(N(C(F)F)S(C)(=O)=O)nc4n3CC3CC3)c(C)n12 (centres unmarked) [Example 365, ~{N}-[2-[7-(1-amino-3-azabicyclo[4.1.0]heptane-3-carbonyl)-5-methoxy-3-methylimidazo [1,2-a]pyridin-2-yl]-1-(cyclopropylmethyl)pyrrolo [2,3-b]pyridin-6-yl]-~{N}-(difluoromethyl) methanesulfonamide] | 0.403 µM
8 | COc1cc(C(=O)N2CCC[C@@H](N)C2)cc2nc(-c3cc4ccc([C@@H](C)NC(=O)OC(C)(C)C)nc4n3CC3CC3)c(C)n12 [Example 257, ~{tert}-butyl~{N}-[(1~{R})-1-[2-[7-[(3~{R})-3-aminopiperidine-1-carbonyl]-5-methoxy-3-methylimidazo[1,2-a]pyridin-2-yl]-1-(cyclopropylmethyl)pyrrolo [2,3-b]pyridin-6-yl]ethyl] carbamate] | 0.208 µM
9 | COc1cc(C(=O)N2CCC[C@@H](N)C2)cc2nc(-c3cc4ccc(O[C@@H](C)C(=O)NC56CC(F)(C5)C6)nc4n3CC3CC3)c(C)n12 [Example 631, (2~{S})-2-[2-[7-[(3~{R})-3-aminopiperidine-1-carbonyl]-5-methoxy-3-methylimidazo[1,2-a]pyridin-2-yl]-1-(cyclopropylmethyl)pyrrolo[2,3-b]pyridin-6-yl]oxy-~{N}-(3-fluoro-1-bicyclo[1.1.1]pentanyl)propanamide] | 10 µM
10 | COc1cc(C(=O)N2[C@H]3CC[C@@H]2[C@H](N)C3)cc2nc(-c3cc4ccc(N5CCCC6(CC6)S5(=O)=O)nc4n3CC3CC3)c(C)n12 [Example 457, [(1~{R},2~{R},4~{S})-2-amino-7-azabicyclo [2.2.1]heptan-7-yl]-[2-[1-(cyclopropylmethyl)-6-(4,4-dioxo-4$l^6-thia-5-azaspiro[2.5]octan-5-yl)pyrrolo[2,3-b]pyridin-2-yl]-5-methoxy-3-methylimidazo[1,2-a]pyridin-7-yl]methanone] | 0.0522 µM
11 | CCC1C(N)C2CCC1N2C(=O)c1cc(OC)n2c(C)c(-c3cc4ccc(N(C(F)F)S(C)(=O)=O)nc4n3CC3CC3)nc2c1 (single isomer, unassigned) [Example 347] | 10.1 µM
12 | CS(=O)(=O)N(c1ccc2cc(-c3nc4cc(C(=O)N5[C@@H]6CC[C@@H](N)[C@H]5CC6)ccn4c3C3CC3)n(CC3CC3)c2n1)C(F)F [Example 397] | 0.0748 µM
13 | CC[C@H]1CCCS(=O)(=O)N1c1ccc2cc(-c3nc4cc(C(=O)N5[C@H]6CC[C@@H]5[C@H](N)C6)cc(OC)n4c3C)n(CC3CC3)c2n1 [Example 446, [(1~{R},2~{R},4~{S})-2-amino-7-azabicyclo [2.2.1]heptan-7-yl]-[2-[1-(cyclopropylmethyl)-6-[(3~{S})-3-ethyl-1,1-dioxothiazinan-2-yl]pyrrolo[2,3-b]pyridin-2-yl]-5-methoxy-3-methylimidazo[1,2-a]pyridin-7-yl]methanone] | 0.0733 µM
14 | COc1cc(C(=O)N2[C@H]3CC[C@@H]2[C@H](N)C3)cc2nc(-c3cc4ccc(C5CCCCN5C(C)=O)nc4n3CC3CC3)c(C)n12 (some centres unmarked) [Example 515, 1-[2-[2-[7-[(1~{R},2~{R}, 4~{S})-2-amino-7-azabicyclo[2.2.1]heptane-7-carbonyl]-5-methoxy-3-methylimidazo[1,2-a]pyridin-2-yl]-1-(cyclopropylmethyl)pyrrolo[2,3-b]pyridin-6-yl]piperidin-1-yl] ethenone] | 0.125 µM

Further lines, results first:

Row | IC50 | Structure (SMILES)
15 | 0.0287 µM | COc1cc(C(=O)N2[C@H]3CC[C@@H]2[C@H](N)C3)cc2nc(-c3cc4ccc([C@@H](C)NC(=O)[C@H]5C[C@@](C)(O)C5)nc4n3CC3CC3)c(C)n12 [Example 54, ~{N}-[(1~{R})-1-[2-[7-[(1~{R},2~{R}, 4~{S})-2-amino-7-azabicyclo[2.2.1]heptane-7-carbonyl]-5-methoxy-3-methylimidazo[1,2-a]pyridin-2-yl]-1-(cyclopropylmethyl)pyrrolo[2,3-b]pyridin-6-yl]ethyl]-3-hydroxy-3-methylcyclobutane-1-carboxamide]
16 | 0.079 µM | [2H]C([2H])([2H])OC(=O)N[C@H](C)c1ccc2cc(-c3nc4cc(C(=O)N5[C@H]6CC[C@@H]5[C@H](N)C6)cc(OC)n4c3C)n(CC3CC3)c2n1 [Example 164, trideuteriomethyl~{N}-[(1~{R})-1-[2-[7-[(1~{R},2~{R},4~{S})-2-amino-7-azabicyclo[2.2.1]heptane-7-carbonyl]-5-methoxy-3-methylimidazo[1,2-a]pyridin-2-yl]-1-(cyclopropylmethyl)pyrrolo [2,3-b]pyridin-6-yl]ethyl] carbamate]
17 | 0.0414 µM | COc1cc(C(=O)N2[C@H]3CC[C@@H]2[C@H](N)C3)cc2nc(-c3cc4ccc([C@@H](C)NC(=O)C5CC5)nc4n3CC3CC3)c(C)n12 [Example 78, ~{N}-[(1~{R})-1-[2-[7-[(1~{R},2~{R},4~{S})-2-amino-7-azabicyclo[2.2.1]heptane-7-carbonyl]-5-methoxy-3-methylimidazo [1,2-a]pyridin-2-yl]-1-(cyclopropylmethyl)pyrrolo [2,3-b]pyridin-6-yl]ethyl] cyclopropanecarboxamide]
18 | 0.0822 µM | COc1cc(C(=O)N2[C@H]3CC[C@@H]2[C@H](N)C3)cc2nc(-c3cc4ccc([C@@H](C)NC(=O)N5CC6CC6C5)nc4n3CC3CC3)c(C)n12 (some centres unmarked) [Example 246, ~{N}-[(1~{R})-1-[2-[7-[(1~{R},2~{R},4~{S})-2-amino-7-azabicyclo[2.2.1]heptane-7-carbonyl]-5-methoxy-3-methylimidazo [1,2-a]pyridin-2-yl]-1-(cyclopropylmethyl)pyrrolo [2,3-b]pyridin-6-yl]ethyl]-3-azabicyclo[3.1.0]hexane-3-carboxamide]
19 | 0.0597 µM | COc1cc(C(=O)N2[C@H]3CC[C@@H]2[C@H](N)C3)cc2nc(-c3cc4ccc([C@@H](C)NC(=O)C(C)(O)C5CC5)nc4n3CC3CC3)c(C)n12 (some centres unmarked) [Example 92, ~{N}-[(1~{R})-1-[2-[7-[(1~ {R},2~{R},4~{S})-2-amino-7-azabicyclo[2.2.1]heptane-7-carbonyl]-5-methoxy-3-methylimidazo [1,2-a]pyridin-2-yl]-1-(cyclopropylmethyl)pyrrolo [2,3-b]pyridin-6-yl]ethyl]-2-cyclopropyl-2-hydroxypropanamide]
20 | 0.0387 µM | COc1cc(C(=O)N2[C@H]3CC[C@@H]2[C@H](N)C3)cc2nc(-c3cc4ccc([C@@H](C)NC(=O)c5ncco5)nc4n3CC3CC3)c(C)n12 [Example 73, ~{N}-[(1~{R})-1-[2-[7-[(1~{R},2~{R},4~{S})-2-amino-7-azabicyclo[2.2.1]heptane-7-carbonyl]-5-methoxy-3-methylimidazo [1,2-a]pyridin-2-yl]-1-(cyclopropylmethyl)pyrrolo [2,3-b]pyridin-6-yl]ethyl]-1,3-oxazole-2-carboxamide]
